What was measured:
[1] = Investigation on transformation of crystal form of type II crystal due to humidity (powder X-ray diffraction); format: physicochemical
Method: For the type I, type II, and type III crystals of a monohydrochloride of 9-ethyl-6,6-dimethyl-8-(4-morpholin-4-yl-piperidin-1-yl)-11-oxo-6,11-dihydro-5H-benzo[b]carbazole-3-carbonitrile, the powder X-ray diffraction was measured under the following conditions. The measurement results for the type II crystal, the type III crystal, and the type I crystal are shown in FIGS. 1, 2, and 3. • Measuring apparatus: X'Pert-Pro MPD (manufactured by PANalytical HV) • Anticathode: Cu • Tube voltage: 45 kV • Tube current: 40 mA • Step width: 0.02 • Scan axis: 20 • Sampling time per: 43 seconds • Scan range: 3 to 40°
In order to investigate the transformation of the crystal form of the type II crystal of the monohydrochloride of 9-ethyl-6,6-dimethyl-8-(4-morpholin-4-yl-piperidin-1-yl)-11-oxo-6,11-dihydro-5H-benzo[b]carbazole-3-carbonitrile due to humidity, samples were placed in the following humidity conditions, and changes in crystal form were investigated using the powder X-ray diffraction.
Test Conditions 1 (Investigation on Transformation of Crystal form of Type II Crystal at Low Humidity)
• Amount of sample: About 17 mq • Temperature: Constant temperature of about 25° C. • Atmospheric gas: Dry nitrogen • Flow rate of atmospheric gas: 200 sccm (ml/min) • Mass change rate: 0.002 dm/dt • Relative humidity: Samples were placed at a relative humidity of 0% RH • Minimum waiting time: 10 min • Maximum waiting time: 1200 min. Test Conditions 2 (Iinvestigation on Transformation of Crystal Form of Type II Crystal at High Humidity) • Amount of sample: About 16 mg • Temperature: Constant temperature of about 25° C. • Atmospheric s: Dry nitrogen • Flow rate of atmospheric gas: 200 sccm (ml/min) • Mass change rate: 0.002 dm/dt (%/min) • Relative humidity: Samples were placed at a relative humidity of 70% RH • Minimum waiting time: 10 min • Maximum waiting time: 1200 min

[2] = Measurement of vapor sorption isotherm of type II crystal (DVS-1); format: physicochemical; details: for weight change rate (%): about 25° C.
Method: For the type II crystal of the monohydrochloride of 9-ethyl-6,6-dimethyl-8-(4-morpholin-4-yl-piperidin-1-yl)-11-oxo-6,11-dihydro-5H-benzo[b]carbazole-3-carbonitrile (about 5 mg), the vapor sorption isotherm was measured using a dynamic vapor sorption isotherm instrument: DVS-1 (Surface Measurement Systems) under the following conditions.
• Temperature: Constant temperature of about 25° C. • Atmospheric gas: Dry nitrogen • Flow rate of atmospheric gas: 200 sccm (ml/min) • Minimum waiting time: 10 min • Maximum waiting time: 1200 min • Mass change rate: 0.002 dm/dt (% min), where the mass change rate was 0.001 dm/dt (% min) at 5, 10, 15, 55, 60, and 65% RH.
Relative humidity: Relative humidity was varied to 0, 5, 10, 15, 20, 30, 40, 50, 55, 60, 65, 70, 80, 90, 80, 70, 65, 60, 55, 50, 40, 30, 20, 15, 10, 5, and 0% RR in this order. Such variation was regarded as one cycle, and three cycles were carried out. The weight change rate (%) of the type II crystal, when the temperature environment was varied from a relative humidity of 0% RH to 90% RH at about 25° C., was 3.7% in the range of a relative humidity from 0% RH to 15% RH, 0.05% in the range of a relative humidity from 15% RH to 55% RH, 11% in the range of a relative humidity from 55% RH to 65% RH, and 0.04% in the range of a relative humidity from 65% RH to 90% RH.

time after which crystal form had returned to the original form when allowed to stand in the air ([1]; after storage at 70% RH, powder X-ray diffraction measured over time): 4 h
time to return to the original crystal form when allowed to stand in the air ([1]; after storage at low humidity (0% RH)): within one hour
relative humidity at which the crystal absorbs moisture and transforms into another crystal form containing water of crystallization (high humidity environment) ([1]; inferred from the XRPD results): ≥ 65 RH
relative humidity at which the crystal dehydrates to an anhydrate (low humidity environment) ([1]; inferred from the XRPD results): ≤ 15 % RH
weight change rate (%) ([2]; relative humidity from 0% RH to 15% RH): 3.7%
weight change rate (%) ([2]; relative humidity from 15% RH to 55% RH): 0.05%
weight change rate (%) ([2]; relative humidity from 55% RH to 65% RH): 11%
weight change rate (%) ([2]; relative humidity from 65% RH to 90% RH): 0.04%
form inferred from molecular weight and mass change rate on storage at low humidity ([2]; stored in an atmosphere of 0% RH): transformed into a monohydrochloride
Structure (SMILES): CCc1cc2c(cc1N1CCC(N3CCOCC3)CC1)C(C)(C)c1[nH]c3cc(C#N)ccc3c1C2=O [type II crystal, 9-ethyl-6,6-dimethyl-8-(4-morpholin-4-yl-piperidin-1-yl)-11-oxo-6,11-dihydro-5H-benzo[b]carbazole-3-carbonitrile]
change in crystal form on storage at low humidity ([1]; relative humidity 0% RH, about 25° C., dry nitrogen, powder X-ray diffraction (FIG. 4)): transformation into another crystal form was caused
change in crystal form on storage at high humidity ([1]; relative humidity 70% RH, about 25° C., powder X-ray diffraction (FIG. 5)): transformation into another crystal form was caused
form inferred from molecular weight and mass change rate in high humidity environment ([2]; humidity of 65% RH or more): transformed into a monohydrochloride tetrahydrate

— patent US9714229B2, “Crystal of tetracyclic compound” (Chugai Seiyaku Kabushiki Kaisha, priority 2014, dated 2017)
